Experimental data: publication PMC8597055, “Exploration of Pyrazolo[1,5‐a]pyrimidines as Membrane‐Bound Pyrophosphatase Inhibitors” (Chemmedchem, 2021)
Several values for one entry are separate records, joined by “and”; a condition that tells them apart may be missing. Equal values may be shown once. Entries after “also recorded” stand apart in the source; their conditions may differ. Read-outs that look alike come from different tables or passages of the source.

Experiments:
[1] = molecular target: T1, Thermotoga maritima mPPase (TmPPase) (Thermotoga maritima, UniProt Q9S5X0); test: TmPPase inhibition assay (96-well); assay type: biochemical; details: for IC50 [CI95%] / IC50: TmPPase inhibition, NA = IC50 not assigned
Description: We started from the previously identified 5‐arylisoxazole‐3‐carboxylate core present in 2–5 (Figure 1, highlighted in blue). Using KNIME,[30] we did a substructure search for commercial analogues in the ZINC12 database[31] […] Therefore, we manually picked compounds from a diverse collection provided by a single vendor (Ambinter, 174 matches for the substructure query). Out of the search results, we selected fifteen isoxazoles for testing in vitro. For all compounds in this manuscript, we tested activity using a 96‐well based assay that detects the inhibition of TmPPase.[22, 23, 24]
(§1) All commercially obtained compounds had purities >90 % as specified by the vendor. Synthesized compounds were >95 % pure as determined by LC–MS and characterized by HRMS. The inhibition assay was carried out with purified TmPPase as previously reported.[22, 23, 24] The best hits 17 a, 19 a, and 20 a, were validated using eight compound concentrations in triplicate. Further hit validation was done against the purified mPPase from P. falciparum (PfPPase‐VP1) expressed in baculovirus‐infected insect cells (expression, purification and further enzyme analysis will be described in more detail elsewhere). 4 μL of the purified PfPPase‐VP1 (2.0 mg/mL) was reactivated in 96 μL of reactivation buffer, i. e. 20 mM 2‐(N‐morpholino)ethanesulfonic acid (MES) pH 6.5, 3.5 % (v/v) glycerol, 2 mM dithiothreitol (DTT) and 12 mg/mL L‐α‐phosphatidylcholine from soybean. For each tube strip, 3 μL of the reactivated PfPPase‐VP1 was added into 12 μL of reaction buffer (200 mM Tris‐Cl pH 8.0, 8.0 mM MgCl2, 333 mM KCl, 67 mM NaCl) and 25 μL of inhibitor solution. The reaction mixtures were incubated at 50 °C for 5 min and the assay was started with the addition of 10 μL of 2 mM sodium pyrophosphate and further incubation at 50 °C for 45 min. The reaction termination and colour development were done as earlier described.[22, 23, 24]
6 IC50 plots from the TmPPase inhibition assay
The blue and black curves refer to compounds presented already in the main article and only shown in the Supporting Information, respectively. IC50, half maximal inhibitory concentration; CI95%, half maximal inhibitory concentration expressed as a 95% confidence interval (given in square brackets); […]
IC50 determinations were done using R 3.6.1[2] and the n-parameter logistic regression (nplr) package[3] version 0.1.7. In this package, the weighted nplr, given x (compound concentrations) and y values (activity) is calculated using Richard’s equation (eq 1) where B and T are the bottom and top asymptotes, respectively; b and xmid are the Hill slope and the x coordinate at inflexion point, respectively; and s is an asymmetric coefficient. The model parameters were simultaneously optimized using non-linear minimization, using a sum of squared errors.[4] The standard error of the model, defined as the squared error on the fitted values, is used to estimate a confidence interval at 95% on the predicted IC50 values.

[2] = Colloidal aggregation by nephelometry under TmPPase assay conditions; assay type: physicochemical
Description: In order to rule out a cause of false positives, colloidal aggregation in the TmPPase model assay was evaluated for compounds 17 a, 19 a and 20 a at six concentrations (100 μM, 50 μM, 20 μM, 10 μM, 1 μM, and 0.1 μM) using the assay conditions (Figure S3).
3 Aggregation data for 17a, 19a and 20a (Figure S3)
Potential colloidal aggregation in the TmPPase model system was studied by nephelometric methods using Nepheloskan Ascent® (Labsystems, Finland). The original assay conditions were simulated, and the light scattering of potential aggregates in the mixture was studied at six concentrations (100 µM, 50 µM, 20 µM, 10 µM, 1 µM and 0.1 µM). Aggregation of the blank and compounds 17a, 19a and 20a was measured as quadruplicates from one independent experiment at three different voltages (300 V, 400 V and 500 V) at room temperature. […]
values at 10 µM, 1 µM and 0.1 µM were similar to those observed by the blank, indicating merely […]
Figure S3. Aggregation data for compounds 17a, 19a and 20a. The data, measured in relative nephelometric units (RNU), is shown as the mean ± SD and normalized to the blank.
(1 picture or pasted object on this page, not shown here)

[3] = molecular target: purified mPPase from P. falciparum (PfPPase-VP1) (Plasmodium falciparum, UniProt Q8IKR1); test: PfPPase-VP1 inhibition assay; assay type: biochemical; details: three replicates
Description: Further hit validation was done against the purified mPPase from P. falciparum (PfPPase‐VP1) expressed in baculovirus‐infected insect cells. […] Overall, these compounds have higher IC50 values for PfPPase‐VP1 than for TmPPase.
as §1

[4] = molecular target: T1, Thermotoga maritima mPPase (TmPPase); design: method as in PMID 31131322, PMID 32292570; details: previously reported inhibitors, read-out: IC50 [CI95%]; cited from earlier work
[5] = tested on: Plasmodium falciparum parasite strain 3D7; test: P. falciparum survival (growth) assay in erythrocyte culture, SYBR Green I; assay type: cell-based; details: Plasmodium falciparum, 3D7, Erythrocyte, 72 h, strain 3D7 in human erythrocytes
Description: Plasmodium falciparum parasite strain 3D7 was used for testing the antiplasmodial activity of the test compounds. The parasite was maintained in culture as described previously.[37] Briefly, parasites were cultured in O+ human erythrocytes at 5 % haematocrit in RPMI‐1640 medium supplemented with 0.5 % Albumax II (Gibco, Carlsbad, CA, USA), 200 μM hypoxanthine (Sigma, St. Louis, MO, USA) and 20 μg/mL gentamycin (Gibco). Parasites were synchronized with the sorbitol method as described.[38] Test compounds were dissolved in DMSO to make a stock solution of 10 mM or 50 mM. Two‐fold serial dilutions of the test compounds were made in the culture medium to cover either the range of 100 μM–100 nM or 400 μM–390 nM. 50 μL of each dilution were mixed in 96‐well plate with 150 μL of 2 % haematocrit of 0.5 % parasitemia (ring stage). Compound dilutions were also mixed with 150 μL of 2 % haematocrit of uninfected erythrocytes to serve as baselines for the activity of the coloured compounds. DMSO concentration in the highest compound concentration was 0.8 %. After 72 h incubation at 37 °C, the parasite growth was quantified using fluorescent SYBR Green I®‐based assay as described.[39] The half‐maximal inhibitory concentration (IC50) of the test compounds was assessed using the non‐linear regression fit model in Prism 7 (GraphPad Software, San Diego, CA, USA). The potent anti‐malarial drug, artemisinin, was used in parallel as a positive control. Each concentration of the test compounds was tested in duplicate and the assay was repeated three times. The mean and standard deviation of the three repeats were used to calculate the IC50.

[6] = IC50, purified PfPPase-VP1, 50 °C

Sequence of purified mPPase from P. falciparum (PfPPase-VP1) (Q8IKR1 entry or part of it): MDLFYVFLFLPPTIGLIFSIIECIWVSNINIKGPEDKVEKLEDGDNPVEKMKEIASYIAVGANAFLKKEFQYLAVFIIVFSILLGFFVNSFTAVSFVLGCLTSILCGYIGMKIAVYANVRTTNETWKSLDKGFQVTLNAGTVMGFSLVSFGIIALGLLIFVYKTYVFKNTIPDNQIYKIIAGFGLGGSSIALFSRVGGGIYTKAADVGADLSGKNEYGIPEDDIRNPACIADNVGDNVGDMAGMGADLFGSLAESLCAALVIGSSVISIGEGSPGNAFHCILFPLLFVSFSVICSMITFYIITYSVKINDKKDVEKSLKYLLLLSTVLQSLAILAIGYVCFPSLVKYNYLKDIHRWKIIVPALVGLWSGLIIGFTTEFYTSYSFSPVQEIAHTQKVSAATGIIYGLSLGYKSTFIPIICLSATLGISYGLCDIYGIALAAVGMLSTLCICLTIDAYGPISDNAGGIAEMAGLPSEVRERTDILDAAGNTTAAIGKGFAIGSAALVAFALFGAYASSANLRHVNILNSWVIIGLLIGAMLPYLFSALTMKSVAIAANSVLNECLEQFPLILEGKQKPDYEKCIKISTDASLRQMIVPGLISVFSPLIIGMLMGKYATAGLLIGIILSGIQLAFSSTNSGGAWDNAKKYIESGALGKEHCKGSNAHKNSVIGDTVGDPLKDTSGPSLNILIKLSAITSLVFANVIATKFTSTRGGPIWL
T1 sequence (Q9S5X0 whole entry): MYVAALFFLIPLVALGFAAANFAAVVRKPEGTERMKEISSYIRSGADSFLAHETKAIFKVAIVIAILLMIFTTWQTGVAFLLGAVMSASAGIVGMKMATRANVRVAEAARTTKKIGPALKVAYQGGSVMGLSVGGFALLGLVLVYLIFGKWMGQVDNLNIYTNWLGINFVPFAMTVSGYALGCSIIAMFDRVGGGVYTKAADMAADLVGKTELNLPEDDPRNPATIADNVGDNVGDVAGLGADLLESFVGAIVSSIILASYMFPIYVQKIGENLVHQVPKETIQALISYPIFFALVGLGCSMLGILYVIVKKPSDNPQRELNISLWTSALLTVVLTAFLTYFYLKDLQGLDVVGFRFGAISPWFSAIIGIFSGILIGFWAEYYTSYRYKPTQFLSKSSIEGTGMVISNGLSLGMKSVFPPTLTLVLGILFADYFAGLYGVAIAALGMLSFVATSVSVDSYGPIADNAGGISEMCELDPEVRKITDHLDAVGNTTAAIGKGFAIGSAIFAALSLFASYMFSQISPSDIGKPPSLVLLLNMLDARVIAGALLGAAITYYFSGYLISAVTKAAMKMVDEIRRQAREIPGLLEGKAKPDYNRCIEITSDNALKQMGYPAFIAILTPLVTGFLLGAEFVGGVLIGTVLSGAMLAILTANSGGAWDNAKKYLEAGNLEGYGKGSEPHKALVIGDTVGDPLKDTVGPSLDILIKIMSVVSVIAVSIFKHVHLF

Row | Compound | IC50 [CI95%] [1] | IC50 ([1]; read-out: IC50 [CI95%]) | other results
1 | CCOC(=O)c1cc(-c2cc(C)cc(C)c2)n2nc(Br)cc2n1 [15 a, Ethyl 2‐bromo‐7‐(3,5‐dimethylphenyl)pyrazolo[1,5‐a]pyrimidine‐5‐carboxylate] | weak activity | 120 µM | –
2 | CCOC(=O)c1cc(C2CC2)n2nc(Br)cc2n1 [15 b, Ethyl 2‐bromo‐7‐cyclopropylpyrazolo[1,5‐a]pyrimidine‐5‐carboxylate] | only slightly effective | 150 µM | –
3 | Cc1cc(C)cc(-c2cc(C(=O)O)nc3cc(Br)nn23)c1 [16 a, 2‐Bromo‐7‐(3,5‐dimethylphenyl)pyrazolo[1,5‐a]pyrimidine‐5‐carboxylic acid] | inactive | – | –
4 | O=C(O)c1cc(C2CC2)n2nc(Br)cc2n1 [16 b, 2‐Bromo‐7‐cyclopropylpyrazolo[1,5‐a]pyrimidine‐5‐carboxylic acid] | completely unsuccessful | – | IC50 [CI95%] ([1]; listed as 16b): Inactive
5 | O=C(Oc1ccccc1Br)c1cc(C2CC2)n2nc(Br)cc2n1 [17 b, 2‐Bromophenyl 2‐bromo‐7‐cyclopropylpyrazolo[1,5‐a]pyrimidine‐5‐carboxylate] | completely unsuccessful | – | IC50 [CI95%] ([1]; listed as 17b): Inactive
6 | C=Cc1cc2nc(C(=O)OCC)cc(-c3cc(C)cc(C)c3)n2n1 [18 a, Ethyl 7‐(3,5‐dimethylphenyl)‐2‐vinylpyrazolo[1,5‐a]pyrimidine‐5‐carboxylate] | – | 54 µM | fold improvement in the inhibition compared to 2-bromo analogue 15 a ([1]; TmPPase, 18 a versus 15 a): 2.2 fold
7 | C=Cc1cc2nc(C(=O)OCC)cc(C3CC3)n2n1 [18 b, Ethyl 7‐cyclopropyl‐2‐vinylpyrazolo[1,5‐a]pyrimidine‐5‐carboxylate] | Inactive | – | –
8 | C=Cc1cc2nc(C(=O)O)cc(-c3cc(C)cc(C)c3)n2n1 [19 a, 7‐(3,5‐Dimethylphenyl)‐2‐vinylpyrazolo[1,5‐a]pyrimidine‐5‐carboxylic acid] | – | – | colloidal aggregation ([2]; six concentrations 100–0.1 μM): no detectable aggregation; IC50 ([1]; IC50 [CI95%]): 14 µM; IC50 [3, 6]: 130 µM
9 | C=Cc1cc2nc(C(=O)O)cc(C3CC3)n2n1 [19 b, 7‐Cyclopropyl‐2‐vinylpyrazolo[1,5‐a]pyrimidine‐5‐carboxylic acid] | Inactive | – | –
10 | C=Cc1cc2nc(C(=O)Oc3ccccc3Br)cc(-c3cc(C)cc(C)c3)n2n1 [20 a, 2‐Bromophenyl 7‐(3,5‐dimethylphenyl)‐2‐vinylpyrazolo[1,5‐a]pyrimidine‐5‐carboxylate] | – | – | concentration of aggregate formation ([2]; TmPPase assay conditions, six concentrations 100–0.1 μM): above 20 μM; colloidal aggregation ([2]; at 10 µM, 1 µM and 0.1 µM): negligible/no detectable aggregation; colloidal aggregation ([2]; at 100 µM, 50 µM and 20 µM): aggregate formation; IC50 ([1]; IC50 [CI95%]): 18 µM; IC50 [3, 6]: 74 µM
11 | C=Cc1cc2nc(C(=O)Oc3ccccc3Br)cc(C3CC3)n2n1 [20 b, 2‐Bromophenyl 7‐cyclopropyl‐2‐vinylpyrazolo[1,5‐a]pyrimidine‐5‐carboxylate] | Inactive | – | –
12 | C=Cc1cc2nc(C(=O)NCCN)cc(-c3cc(C)cc(C)c3)n2n1 [21 a, N ‐(2‐Aminoethyl)‐7‐(3,5‐dimethylphenyl)‐2‐vinylpyrazolo[1,5‐a]pyrimidine‐5‐carboxamide] | – | 72 µM | fold higher inhibition than cyclopropyl-substituted analogue 21 b ([1]; TmPPase, 21 a versus 21 b): 3.6 fold
13 | C=Cc1cc2nc(C(=O)NCCN)cc(C3CC3)n2n1 [21 b, N ‐(2‐Aminoethyl)‐7‐cyclopropyl‐2‐vinylpyrazolo[1,5‐a]pyrimidine‐5‐carboxamide] | – | 260 µM | –
14 | Nc1nc2ccc(CNC(=O)c3cc4ccccc4[nH]3)cc2s1 [compound 1] | – | – | IC50 [4]: 2.7 µM
15 | Cc1cccc(-c2cc(C(=O)Oc3ccccc3Br)no2)c1 [compound 3] | – | – | IC50 [4]: 6.1 µM
16 | CC(C)(C)c1cccc(-c2cc(C(=O)Oc3ccccc3Br)no2)c1 [compound 4] | – | – | IC50 [4]: 6.7 µM
17 | CCOC(=O)c1cc(-c2ccc(OC)c(S(=O)(=O)Nc3ccc4c(c3)OCO4)c2)on1 [compound 5] | – | – | IC50 [4]: 36 µM
18 | CCOC(=O)c1cc(-c2ccc(OC)c(S(=O)(=O)N3CCCSc4ccccc43)c2)on1 [compound 6] | – | 5.4 µM | –
19 | CCOC(=O)c1cc(-c2ccc(OC)c(S(=O)(=O)N3c4ccccc4CC3C)c2)on1 (stereo not shown) [compound 7] | – | 56 µM | –
20 | CCOC(=O)c1cc(-c2ccc(OC)c(S(=O)(=O)N3CC(C)CSc4ccccc43)c2)on1 (stereo not shown) [compound 8] | Inactive; also recorded: not tolerated | – | –
21 | CCOC(=O)c1cc(-c2ccc(OC)c(S(=O)(=O)N3CCSc4ccccc43)c2)on1 [compound 9] | Inactive; also recorded: loss of all TmPPase inhibitory activity | – | –
22 | CCOC(=O)c1cc(-c2ccc(OC)c(S(=O)(=O)N3CC(C)Sc4ccccc43)c2)on1 (stereo not shown) [compound 10] | Inactive; also recorded: loss of all TmPPase inhibitory activity | – | –
23 | COc1ccccc1S(=O)(=O)Nc1ccc(N(C)C)cc1 [compound 11] | – | < 25 µM and 14 µM | ligand efficiency (LE) ([1]; computed from pIC50 and heavy atom count): 0.23
24 | COc1cc(C2c3c(-c4cc(Cl)c(C)cc4O)n[nH]c3C(=O)N2Cc2ccccc2)ccc1O (stereo not shown) [compound 12] | – | < 25 µM and 25 µM | IC50 [5]: 3.6 µM; IC50 ([3]; purified PfPPase-VP1, 50 °C): comparably weak; IC50 ([3]; purified PfPPase-VP1, 50 °C, read-out: IC50): 180 µM
